Consider six substances from patent publication US9328143B2, “Peptide derivatives and use thereof as carriers for molecules in the form of conjugates” (VECT-HORUS, priority 2008, dated 2016).

Series [1] addresses T1, hLDLR (Homo sapiens, UniProt P01130). Description: Immunocytochemistry: bacterial viruses on CHO-GFP (control) and CHO-hLDLR-GFP cell lines. The series is classed as binding. More on the design: expressed in transfected cells. The conditions noted are these: CHO cell line expressing GFP alone; peptide expressed by bacterial virus clone. From the text: CHO cell lines stably expressing A—GFP alone (green), and B—hLDLR-GFP (green), and immunostaining with an anti-viral envelope protein antibody of a clone of bacterial viruses expressing a peptide (SEQ ID NO: 1) with affinity for hLDLR (red dots). Cell nuclei are stained with Hoechst (blue, A1 and B1). GFP fluorescence is visible in green (A2 and B2), that of the staining of the viral envelope of the bacterial virus by the viral anti-protein antibody is visible in red (A3 and B3) and the superimposing of red and green stains is visible in yellow/orange (A4 and B4).
The bacterial virus clones identified following the binding of the peptides, which they express and which bind to hLDLR-GFP expressed by the stable CHO-hLDLR-GFP cell line, were brought together with LDLR cells and, after intensive washing, were detected with an antibody directed against the viral envelope protein of the bacterial virus followed by a second antibody coupled with Alexa 594 (FIG. 7).

In series [2] the test system is mouse brain vessel endothelial cells. Description: Tail vein injection of bacterial viruses in C57BL6 mice, immunostaining of brain sections. The series is classed as in vivo. The conditions noted are these: 15 min and 2 h post injection, peptide expressed by bacterial viruses. The method, then: Double immunofluorescent staining of frozen sections of C57BL6 mouse brain, 2 h after mouse tail vein injection of control bacterial viruses (A-B) and bacterial viruses expressing a peptide (SEQ ID NO: 1) with affinity for hLDLR and mLDLR (C-D). Brain vessels are stained with anti-mouse IgG, in green (A-C); bacterial viruses are stained with anti-viral envelope protein antibody, in red (B-D).
Bacterial viruses expressing peptides with affinity for hLDLR (SEQ ID NO: 1 is described here for example) and control bacterial viruses (not expressing peptide with affinity for hLDLR) were injected into the tail veins of C57BL6 mice anaesthetised with halothane. After 15 min and 2 h post injection, the mice were sacrificed and perfused with 0.9% NaCl. Brains, livers and kidneys were frozen in isopentane and frozen sections were prepared for double immunohistochemical staining to visualise blood vessels with anti-mouse IgG and anti-viral envelope protein antibody to visualise bacterial viruses bound to endothelial cells in vivo.

The target in series [3] is T1, hLDLR. The series is described as follows: FACS: binding of bacterial viruses expressing peptides to human fibroblasts. Also noted: endogenous in cells; host or cells: HUVEC (human umbilical vein endothelial cells), not genetically modified. The conditions noted are these: peptide expressed by bacterial virus clone, vs control bacterial viruses. As for the experimental part:
Evaluation by FACS of the interaction between human fibroblasts and a clone of bacterial viruses expressing peptide SEQ ID NO: 12 with affinity for hLDLR, compared with control bacterial viruses not expressing peptides with affinity for this receptor.
(§1) Qualitative immunocytochemistry was supplemented with quantitative flow cytometry (FACS) with suspended cells (GFP cell line, CHO-hLDLR-GFP cell line, human fibroblasts, HUVEC). These cells were grown in culture medium, mechanically unbound and dissociated (without trypsin), centrifuged, resuspended and incubated in the presence of various bacterial virus clones and anti-LDLR antibody, for 20 min at 4° C. in order to avoid any process of endocytosis. After washings, the bacterial viruses bound to cells were visualised with anti-viral envelope protein antibody. FACS analyses were carried out with a FACSCanto system (Becton Dickinson) using BD FACSDiva software. The number of positive cells was standardised with 5,000 events for each test. The results were expressed in arbitrary units of fluorescence.
(§2) FIGS. 9, 10, 11 correspond to the results obtained for peptides SEQ ID NO: 11, SEQ ID NO: 12 and SEQ ID NO: 21 on cells of the CHO-hLDLR-GFP cell line (FIG. 9), human fibroblasts (FIG. 10) and HUVEC (FIG. 11).
In general terms: In flow cytometry, cells or beads pass a laser one at a time.

The conditions of series [4]: Demeule et al., 2008; cited from earlier work.
The conditions of series [5]: Pan et al., 2004; cited from earlier work.
A short description of series [6]: In situ brain perfusion in mouse, transport across the BBB. Type of series: in vivo. The conditions noted are these: mouse, in vivo. As for the experimental part: The in situ brain perfusion technique (in adult male OF1 mouse) is used here to select the best vectors and to provide proof of their mechanism of action for their passage in the brain across the BBB.
Radioactive peptides with high specific radioactivity (SRA, up to 100 Ci/mmol) are prepared by a strategy of acylation of the N-term amine function by tritiated propionic (or propanoic) anhydride or tritiated N-propionyl-succinimide (NPS).
The tritiation reaction of peptide vectors SEQ ID NO: 11 and SEQ ID NO: 48 in the N-term position by propionylation is carried out in DMF (1 mg peptide in 100 μl to 450 μl according to solubility) by adding 0.1 equivalent of tritiated NPS for 5 min at room temperature, then 0.9 equivalent of cold NPS (non-tritiated) for 1 h, and then a new equivalent of cold NPS for 5 h. The reaction medium is then left at 4° C. overnight and purified the following day by HPLC. The SRA for each tritiated peptide is between 5 Ci/mmol and 10 Ci/mmol (theoretically on the order of 7.7 Ci/mmol). The total quantity of radioactivity prepared by synthesis is between 600 μCi and 950 μCi.
The techniques briefly summarised below were developed to study the distribution in the brain of active substances and, in particular, the role of the BBB and, more particularly, of LDLR in the penetration of these molecules in the brain. In situ brain perfusion techniques are among the most technically demanding and the most difficult to perform in the mouse. However, in situ brain perfusion (like in vitro models) enables total control of the composition of the artificial perfusate in order to maintain the cells and vascularisation of the brain under normal physiological and anatomical conditions within the animal, without the disrupting factor of systemic distribution.
(§3) This strategy of in situ brain perfusion normally carried out in the rat was adapted for mouse (Dagenais et al., 2000, J Cereb Blood Flow Metab., 20(2), 381-6) in order to broaden its application for evaluating the parameters of transport kinetics at the BBB and the blood-retinal barrier, in transgenic and KO mutant mice for the receptors, enzymes or transporters of active substances. It involves catheterisation of a carotid artery in anaesthetised OF 1 mice and ligature of some branches of this carotid artery (external, thyroidal, occipital) in order to specifically perfuse the internal carotid and pterygopalatine arteries, which are used to evaluate the uptake in the brain of the vectors and conjugates. The catheter makes it possible to replace general circulation by infusion with a well-controlled perfusate (bicarbonate buffer, plasma or blood) by passing by the carotid. Oxygenated Krebs bicarbonate buffer is first used to evaluate the capacities of the vectors and conjugates to gain access to the brain. After catheterisation of the carotid, endogenous blood flow is stopped by sectioning the ventricles of the heart in order to avoid the mixture of buffer with blood and elevation in blood pressure. The duration of the fixed flow-rate perfusion is monitored. The buffer perfusion can be extended up to 20 min, or up to 1 h in the presence of oxygen transporters (washed erythrocytes) for studies of receptor-mediated transport (RMT).
The study of peptide vector SEQ ID NO: 11 made it possible to determine its brain transport or transfer coefficient (Kin). The duration of brain perfusion for these experiments is 5 min with a perfusate flow rate of 2 ml/min. Thus, the calculation of the Kin (volume of distribution over time of brain perfusion) of peptide vector SEQ ID NO: 11 gives a value of 3.5±0.2×10^−4 ml/s/g.

Series [7] has as its target T1, hLDLR. The series is described as follows: Displacement of SEQ ID NO: 11/S-Tag on CHO-hLDLR-RFP cells (FRET). Type of series: binding. Also noted: expressed in transfected cells. The conditions noted are these: 10 μM peptide vs 10 μM SEQ ID NO: 11/S-Tag. The method, then: For the FRET approaches, cells are washed twice with 2 ml PBS and then incubated for 1 h at 37° C. with 250 μl peptide solution. They are again washed twice with 2 ml PBS and then twice with 1 ml PBS, and then scraped in 1 ml PBS and centrifuged for 5 min at 1,250 rpm. The supernatant is then aspirated and the cell pellet is lysed in 80 μl PBS+0.1% Triton X100. Twenty μl of each cell lysate are analysed by measuring fluorescence emission after the FRET reaction.
A study of the structure/activity (affinity) relationships was carried out on peptide vector SEQ ID NO: 11 via the alanine scanning (Ala-scan) technique and by N- and C-term truncation in order to determine the importance of each of the 15 constitutive amino acids of this peptide. […] Briefly, the CHO-hLDLR-RFP cells used are adherent and at confluence.
They are grown in six-well plates. Three wells of cells are used per condition.
A solution containing 10 μM peptide SEQ ID NO: 11/S-Tag is prepared in HamF12-1% BSA culture medium. To this solution is added 10 μM peptide resulting from the Ala-scan to be evaluated (competition). […]

Series [8] can be described thus: In situ perfusion in mouse, transport across the blood-retinal barrier. Type of series: in vivo. The conditions noted are these: mouse, in vivo.
Text: as §3
In addition, the Kin of these various peptides, across the blood-retinal barrier (BRB), were also determined. Kin of SEQ ID NO: 11=1.2±0.2×10^−4 ml/s/g Kin of SEQ ID NO: 48=2.4±0.3×10^−4 ml/s/g Kin of SEQ ID NO: 73=0.0±0.0×10^−4 ml/s/g Kin of SEQ ID NO: 72=11.5±3.3×10^−4 ml/s/g Kin of SEQ ID NO: 74=1.8±0.2×10^−4 ml/s/g

Series [9] addresses T1, hLDLR. The series is described as follows: FACS on HUVEC: competition between peptides expressed by bacterial viruses and natural ligand LDL. Type of series: binding. More on the design: endogenous in cells; host or cells: HUVEC (human umbilical vein endothelial cells), not genetically modified. The text has this:
Evaluation by FACS on HUVEC of competition between the peptides expressed by the bacterial viruses with affinity for LDLR and its natural ligand LDL.
I—Graph representing the percentage of shift of the fluorescence signal in zone Q2 of graphs A-H obtained by FACS. […] Adding LDL leads to an 85% loss of signal in Q2 in […], indicating competition between the bacterial virus corresponding to peptide sequence SEQ ID NO: 21 and LDL at the site where LDL binds to hLDLR. The equally strong signal in Q2 of the bacterial viruses that express peptide SEQ ID NO: 11 (shift greater than 70% compared to control bacterial viruses) is only slightly shifted (17%) by adding LDL.
First, it is shown that the binding rate of bacterial viruses expressing peptides with affinity for hLDLR (SEQ ID NO: 21 and SEQ ID NO: 11 are used here as examples) is proportional to the level of LDLR expression by HUVEC. FACS experiments carried out in the presence of LDL made it possible to show and quantify a strong shift (85%) of LDL by linear peptides (for example SEQ ID NO: 21), but a small shift (17%) by cyclic peptides (for example SEQ ID NO: 11).

Series [10] addresses T1, hLDLR. Description: FACS: binding of bacterial viruses expressing peptides to CHO-hLDLR-GFP cells. Also noted: expressed in transfected cells. The conditions noted are these: peptide expressed by bacterial virus clone, vs control bacterial viruses, 20 min at 4° C. The method, then: Evaluation by FACS of the interaction between CHO-hLDLR-GFP cells and a clone of bacterial viruses expressing peptide SEQ ID NO: 11 with affinity for hLDLR compared with control bacterial viruses not expressing peptides with affinity for this receptor.
as §1, §2

Series [11] has as its target T1, hLDLR. The series is described as follows: FACS: binding of bacterial viruses expressing peptides to HUVEC. Also noted: endogenous in cells; host or cells: HUVEC (human umbilical vein endothelial cells), not genetically modified. As for the experimental part:
Evaluation by FACS of the interaction between HUVEC and two clones of bacterial viruses expressing peptides, one cyclic (SEQ ID NO: 11), the other linear (SEQ ID NO: 21), with affinity for hLDLR, compared with control bacterial viruses not expressing peptides with affinity for this receptor.
as §1, §2

Like-named read-outs stand apart in the source and are kept apart here.

T1 sequence (P01130 22-860): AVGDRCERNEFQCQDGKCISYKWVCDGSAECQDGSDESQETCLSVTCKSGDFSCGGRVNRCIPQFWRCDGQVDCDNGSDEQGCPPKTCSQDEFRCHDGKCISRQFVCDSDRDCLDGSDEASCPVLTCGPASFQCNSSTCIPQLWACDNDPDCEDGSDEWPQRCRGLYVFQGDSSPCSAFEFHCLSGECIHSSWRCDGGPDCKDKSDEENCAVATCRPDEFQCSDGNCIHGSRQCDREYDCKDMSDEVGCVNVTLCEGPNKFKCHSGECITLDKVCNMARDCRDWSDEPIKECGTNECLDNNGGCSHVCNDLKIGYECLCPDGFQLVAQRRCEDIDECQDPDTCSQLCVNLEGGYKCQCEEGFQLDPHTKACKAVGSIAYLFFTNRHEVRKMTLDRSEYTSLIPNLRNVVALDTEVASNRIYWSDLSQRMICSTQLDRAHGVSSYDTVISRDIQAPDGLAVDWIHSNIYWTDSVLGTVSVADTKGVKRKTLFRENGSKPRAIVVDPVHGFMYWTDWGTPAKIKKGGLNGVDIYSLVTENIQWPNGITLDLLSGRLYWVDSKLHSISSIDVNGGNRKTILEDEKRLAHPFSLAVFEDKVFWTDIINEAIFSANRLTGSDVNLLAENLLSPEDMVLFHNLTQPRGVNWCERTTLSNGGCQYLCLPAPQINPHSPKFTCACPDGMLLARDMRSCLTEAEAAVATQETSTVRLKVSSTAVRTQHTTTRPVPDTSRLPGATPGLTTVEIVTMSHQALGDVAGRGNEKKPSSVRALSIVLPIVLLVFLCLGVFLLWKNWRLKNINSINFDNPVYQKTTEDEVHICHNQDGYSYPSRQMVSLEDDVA

For the substance HLDCMPRGCFRN [SEQ ID NO: 1], in [1], the “binding of bacterial viruses to cells that do not express hLDLR” value was “do not bind”. Further, the “binding to brain vessel wall endothelial cells in vivo” value in series [2] was “bind to vessel wall endothelial cells”.
MTVMPTGLWNPLIPS [SEQ ID NO: 12]: in series [3], the “shift of the signal in Q2 (FACS)” value is on record as “significant shift”.
On to “transferrin: transferrin, ligand of TfR; literature Kin value”, for which, in series [4], the Kin was 0.0003 mL/s/g.
As for “RAP protein: RAP protein; literature Kin value”, in [5], the Kin was 1e-05 mL/s/g.
(D)-CMPRLRGC [SEQ ID NO: 48]: in [6], the “Kin (brain transport or transfer coefficient)” value was 4.8±0.4 ×10^−4 ml/s/g and the “improvement of passage in the brain, factor vs SEQ ID NO: 11” value was 1.37. In series [7], the “in vitro affinity for LDLR (displacement of SEQ ID NO: 11/S-Tag)” value is on record as “excellent affinity”. For the same substance, the “Kin across the blood-retinal barrier (BRB)” value in series [8] is on record as 2.4±0.3 ×10^−4 ml/s/g.
For the substance DSGLCMPRLRGCDPR [SEQ ID NO: 11], the “effect of LDL on binding of peptides expressed by bacterial viruses” value in [9] (FACS, LDL added) is recorded as “No effect”. For the same substance, the “loss/shift of signal in Q2 on adding LDL” value in [9] (peptide expressed by bacterial viruses, in the presence of LDL) worked out at 17%. The “shift of the signal in Q2 (FACS)” value in series [10] is given as “significant shift”; in [11] (peptide expressed by bacterial virus clone, vs control bacterial viruses), “significant shift”. For the same substance, in [6], the “Kin (brain transport or transfer coefficient)” value was 3.5±0.2 ×10^−4 ml/s/g. The “percentage of shift of the fluorescence signal in zone Q2” value in series [11] (peptide expressed by bacterial viruses, without LDL) is given as “greater than 70%”. Also, in series [8], the “Kin across the blood-retinal barrier (BRB)” value was 1.2±0.2 ×10^−4 ml/s/g.
